According to patent US4855497A, “Novel diamine derivatives” (Chugai Seiyaku Kabushiki Kaisha, priority 1985, dated 1989):

How the values were obtained:
[1] = tested on: Chloroform-Induced Arrythmia; test: Activity against chloroform-induced arrythmia in rats (prevention of ventricular fibrillation); type: in vivo, Sprague-Dowley male rats; details: 30 min prior to chloroform; for responders at 1 mg/kg: Rattus norvegicus, po, 0.5 h, not starved rats, 1 mg/kg P.O., read-out: Percent prevention (ventricular fibrillation), not starved
Method: Activity Aganist Chloroform-Induced Arrythmia in Rats
The following procedures were substantially in accordance with the method of Erker and Baker (Arch. Int. Pharmacodyn., 243, 97-102, 1980). Aminophylline (20 mg/kg) was injected intramuscularly into two groups of Sprague-Dowley male rats (3-4 wk. old, 7 animals per group) weighing about 100 g on average, one group having been starved for 24 hours and the other group not starved. Thirty minutes after the injection, the animals were put into a 4,000-ml glass beaker with a lid that contained gauze impregnated with […] of chloroform. Fifty minutes later, the animals were recovered from the beaker and their chests were incised to check their hearts for the presence of ventricular fibrillation. The features of their cardiac rhythm were examined by the electrocardiogram. When no distinct fibrillation was observed, the heart was touched with tweezers. The heart was identified as fibrillar when rapid irregular twitchings occured on the surface of ventricles and continued for at least 5 seconds after chest incision or mechanical stimulation.
Selected compounds suspended in 3% gum arabic were administered in various doses to the rats either intraperitoneally (i.P.) or perorally (P.O.) 30 minutes prior to treatment with chloroform. The percent prevention of ventricular fibrillation was determined for each rat. Only a 3% gum arabic solution was administered to the control group.

[2] = tested on: Aconitine-Induced Arrythmia; test: Activity against aconitine-induced arrythmia in rats; type: in vivo, Sprague-Dowley male rats; details: aconitine 1 μg/kg/min; for Time required for ventricular extrasystole to occur: untreated 14.3 min; for Time required for ventricular fibrillation to occur: untreated 35.3 min
Method: Activity Against Aconitine-Induced Arrythmia in Rats
Using Sprague-Dowley male rats (9-10 wk. old, two animals per group) weighing about 350 g on average, the following experiment was conducted substantially in compliance with the method of Vargftig et al. (Europ. J. Pharmacol., 6, 49, 1969).
The animals were anesthetized by intraperitoneal administration of 1 g/kg of urethane. A polyethylene cannula was inserted into both the femoral artery and vein of each animal; the drug was administered through the femoral vein while the blood pressure was measured at the femoral artery.
While the aconitine solution was continuously infused into the vein at a rate of 1 μg/kg/min, a selected compound was administered intravenously at 5-minute intervals. In order to prevent the aconitine-induced dyspnea from interfering with the experimental results, 0.2 mg/kg of d-tubocurarine was administered intravenously to each animal, which then was subjected to artificial respiration through a cannula inserted into the trachea (80 breathings/min, with 4 ml of air supplied by a single ventillation).
Identification of arrythmia was made by the ECG in the second induction period; the appearance of a QRS complex with sharply downward deflections was used as an indication of ventricular arrythmia and observation was continued until ventricular fibrillation appeared. The results are shown in Table 3 in terms of the times required for ventricular extrasystole and ventricular fibrillation to occur.

[3] = tested on: Ouabain-Induced Arrythmia; test: Activity against ouabain-induced arrythmia in guinea pigs; type: in vivo, Hartly male guinea pigs; details: ouabain 5 μg/kg/min; for Time required for ventricular extrasystole to occur: untreated 28.5 min; for Time required for ventricular fibrillation to occur: untreated 35.1 min; for Time required for cardiac arrest to occur: untreated 41.2 min
Method: Activity Against Ouabain-Induced Arrythmia in Guinea Pigs
Hartly male guinea pigs (5-6 wk. old, two animals per group) weighing about 350 g on average were anesthetized by intraperitoneal administration of 1.2 g/kg of urethane. A polyethylene cannula was inserted into both the cervical vein and the carotid artery; the drug was administered through the cervical vein while the blood pressure was measured at the carotid artery. A selected test compound was administered 5 minutes before the sustained intravenous infusion of the ouabain solution (5 μg/kg/min) as described in J. Pharmacol. Exp. Ther., 136, 227, 1962). Identification of arrythmia was made by the ECG in the second induction period; the appearance of a QRS complex with sharply downward deflictions was used as an indication of ventricular arrythmia and observation was continued until ventricular fibrillation and cardiac arrest appeared. The results are shown in Table 4 in terms of the times required for ventricular extrasystole, ventricular fibrillation and cardiac arrest to occur.

[4] = tested on: sleeping induced by hexobarbital; test: Effect on the time of sleeping induced by hexobarbital; type: in vivo, ddY/Slc male rats; details: 5 mg/kg perorally; ** p < 0.05 vs untreated (53.9 ± 2.7)
Method: Effect on the Time of Sleeping Induced by Hexobarbital
A selected compound of the present invention was administered perorally to ddY/Slc male rats (5-6 wk. old, 10 animals per group) in an amount of 50 or 100 mg/kg. One hour later, […] of hexobarbital was administered intraperitoneally to each animal, thereby causing the loss of orthogonal reflex. The time required for the recovery of orthogonal reflex was measured for each animal.
As comparative drugs, 50 or 100 mg/kg of disopyramide and 5 mg/kg of diazepam were administered perorally.

Acetylcholine = test: Activity against acetylcholine (I): inhibition of acetylcholine-induced contraction of isolated ilea; set-up: species or system SD/Slc male rats; details: 10^-4 M; 10^-6 M acetylcholine; isolated rat ilea
Method: Activity Against Acetylcholine (I)
SD/Slc male rats (10-mo. old, four animals per group) were clubbed dead and their ilea were immediately extracted. The ilea were suspended under a load of 1 g in a Krebs-Henseleit solution oxygenated with a mixture of 95% O2 +5% CO2 at 27° C., and the ileal reaction was measured isotonically.
The anti-cholinergic activity of each of the compounds tested was determined in terms of percent inhibition against the contractive reaction of 10^-6 M of acetylcholine (causing 60-70% of the maximum contractive reaction of acetylcholine).

[5] = peroral, clinical; cited from earlier work
Blood Sugar Level = test: Effect on blood sugar level; type: in vivo, SD/Slc male rats; details: starved overnight
Method: Effect on Blood Sugar Level
After starving SD/Slc male rats (body weight, 250 g; 6 animals per group) overnight, 20-μl blood samples were drawn from the tail vein of each rat while it was not anesthetized. Records were taken of the sugar level in each blood sample. A selected compound of the present invention was suspended in 3% gum arabic and the suspension was administered perorally to each rat in an amount of 50 or 200 mg/kg. At 2, 4 and 6 hours of the administration, blood samples were taken and their blood sugar levels were measured. Measurements of blood sugar levels were conducted with a New Blood Sugar Test (Boehringer, Mannheim).
To the control group, a 3% gum arabic solution was administered, and diisopyramide was administered as a comparative drug.

Compound	responders at 1 mg/kg [1]	Time required for ventricular extrasystole to occur ([2]; 5 mg/kg intravenously)	Time required for ventricular fibrillation to occur ([2]; 5 mg/kg intravenously)	Time required for ventricular extrasystole to occur ([3]; 10 mg/kg via cervical vein)	Time required for ventricular fibrillation to occur ([3]; 10 mg/kg via cervical vein)	Time required for cardiac arrest to occur ([3]; 10 mg/kg via cervical vein)	Percent inhibition (contractive reaction of acetylcholine) (Acetylcholine)	further results
Cc1cccc(C)c1NC(=O)CCNCCCN(CC(C)C)CC(C)C [compound 12]	85.7%	26.2 min	30.2 min	45.4 min	48.2 min	56.6 min		
CN1C(=O)CN=C(c2ccccc2)c2cc(Cl)ccc21 [Diazepam]								Time of sleeping (mean ± S.E.) [4]: 136.4 ± 5.8 min
Cc1cccc(C)c1NC(=O)CCNCCCNC1CCCCCCC1 [compound 14]	85.7%							
CCN(CC)CCCNCCC(=O)Nc1c(C)cccc1C [Compound No. 3, 3-(diethylaminopropylamino)-2',6'-dimethylpropionanilide]	100%	27.4 min	> 120.0 min	34.4 min	42.2 min	48.4 min	28%	
CCc1cccc(CC)c1NC(=O)CCNCCCN(CC(C)C)CC(C)C [compound 31]	100%	26.1 min	> 90.0 min					Time required for ventricular extrasystole to occur ([3]; 5 mg/kg via cervical vein): 34.1 min; Time required for ventricular fibrillation to occur ([3]; 5 mg/kg via cervical vein): 51.0 min; Time required for cardiac arrest to occur ([3]; 5 mg/kg via cervical vein): 57.8 min
Cc1cccc(C)c1NC(=O)CCCNCCCN(CC(C)C)CC(C)C [compound 18]							0%	
CCc1cccc(CC)c1NC(=O)CCNCCCCCN(CC(C)C)CC(C)C [compound 35]	100%	24.5 min	84.5 min				9%	Time required for ventricular extrasystole to occur ([3]; 5 mg/kg via cervical vein): 45.4 min; Time required for ventricular fibrillation to occur ([3]; 5 mg/kg via cervical vein): 48.4 min; Time required for cardiac arrest to occur ([3]; 5 mg/kg via cervical vein): 56.2 min
CCN(CC)CC(=O)Nc1c(C)cccc1C [Lidocaine, reference compound]								Percent prevention (ventricular fibrillation), starved ([1]; starved rats, 20 mg/kg i.P.): 77.1%; drug level in blood [5]: too low to attain the desired effectiveness
Cc1cccc(C)c1NC(=O)CCNCCCN(C(C)C)C(C)C [compound 11]	85.7%	26.2 min	73.8 min	35.3 min	45.3 min	52.4 min	0%	Time required for ventricular extrasystole to occur ([2]; 10 mg/kg intravenously): 44.2 min; Time required for ventricular fibrillation to occur ([2]; 10 mg/kg intravenously): > 120.0 min; Blood sugar level, 0 hr (mean ± S.E.) (Blood Sugar Level; 50 mg/kg perorally): 71.3 ± 2.9 mg/dL; Blood sugar level, 2 hr (mean ± S.E.) (Blood Sugar Level; 50 mg/kg perorally): 61.8 ± 3.1 mg/dL; Blood sugar level, 4 hr (mean ± S.E.) (Blood Sugar Level; 50 mg/kg perorally): 64.0 ± 2.2 mg/dL; Blood sugar level, 6 hr (mean ± S.E.) (Blood Sugar Level; 50 mg/kg perorally): 63.8 ± 1.5 mg/dL; Blood sugar level, 0 hr (mean ± S.E.) (Blood Sugar Level; 200 mg/kg perorally): 62.3 ± 2.7 mg/dL; Blood sugar level, 2 hr (mean ± S.E.) (Blood Sugar Level; 200 mg/kg perorally): 52.0 ± 3.5 mg/dL; Blood sugar level, 4 hr (mean ± S.E.) (Blood Sugar Level; 200 mg/kg perorally): 53.8 ± 3.8 mg/dL; Blood sugar level, 6 hr (mean ± S.E.) (Blood Sugar Level; 200 mg/kg perorally): 63.6 ± 1.5 mg/dL
Cc1cccc(C)c1NC(=O)CCNCCCN(C)C [Compound No. 2, 3-(dimethylaminopropylamino)-2',6'-dimethylpropionanilide]	71.4%	25.5 min	36.5 min	38.1 min	43.4 min	48.7 min	7%	Time required for ventricular extrasystole to occur ([3]; 5 mg/kg via cervical vein): 31.0 min; Time required for ventricular fibrillation to occur ([3]; 5 mg/kg via cervical vein): 38.5 min; Time required for cardiac arrest to occur ([3]; 5 mg/kg via cervical vein): 39.5 min; Blood sugar level, 0 hr (mean ± S.E.) (Blood Sugar Level; 50 mg/kg perorally): 77.6 ± 5.5 mg/dL; Blood sugar level, 2 hr (mean ± S.E.) (Blood Sugar Level; 50 mg/kg perorally): 61.3 ± 2.2 mg/dL; Blood sugar level, 4 hr (mean ± S.E.) (Blood Sugar Level; 50 mg/kg perorally): 63.7 ± 4.5 mg/dL; Blood sugar level, 6 hr (mean ± S.E.) (Blood Sugar Level; 50 mg/kg perorally): 64.4 ± 4.4 mg/dL; Blood sugar level, 0 hr (mean ± S.E.) (Blood Sugar Level; 200 mg/kg perorally): 76.1 ± 2.4 mg/dL; Blood sugar level, 2 hr (mean ± S.E.) (Blood Sugar Level; 200 mg/kg perorally): 52.9 ± 3.2 mg/dL; Blood sugar level, 4 hr (mean ± S.E.) (Blood Sugar Level; 200 mg/kg perorally): 58.3 ± 2.6 mg/dL; Blood sugar level, 6 hr (mean ± S.E.) (Blood Sugar Level; 200 mg/kg perorally): 56.8 ± 1.7 mg/dL
Cc1cccc(C)c1NC(=O)CCNCCNC(C)C [Compound No. 4, 3-(isopropylaminoethylamino)-2', 6'-dimethylpropionanilide]	100%			42.5 min	59.5 min	66.5 min	0%	Time required for ventricular extrasystole to occur ([2]; 10 mg/kg intravenously): 34.4 min; Time required for ventricular fibrillation to occur ([2]; 10 mg/kg intravenously): > 120.0 min; Blood sugar level, 0 hr (mean ± S.E.) (Blood Sugar Level; 50 mg/kg perorally): 81.2 ± 2.4 mg/dL; Blood sugar level, 2 hr (mean ± S.E.) (Blood Sugar Level; 50 mg/kg perorally): 60.3 ± 3.4 mg/dL; Blood sugar level, 4 hr (mean ± S.E.) (Blood Sugar Level; 50 mg/kg perorally): 57.5 ± 1.6 mg/dL; Blood sugar level, 6 hr (mean ± S.E.) (Blood Sugar Level; 50 mg/kg perorally): 61.5 ± 0.6 mg/dL; Blood sugar level, 0 hr (mean ± S.E.) (Blood Sugar Level; 200 mg/kg perorally): 69.1 ± 2.9 mg/dL; Blood sugar level, 2 hr (mean ± S.E.) (Blood Sugar Level; 200 mg/kg perorally): 57.4 ± 3.0 mg/dL; Blood sugar level, 4 hr (mean ± S.E.) (Blood Sugar Level; 200 mg/kg perorally): 58.5 ± 2.1 mg/dL; Blood sugar level, 6 hr (mean ± S.E.) (Blood Sugar Level; 200 mg/kg perorally): 59.0 ± 1.8 mg/dL
